{"source": "the kinase profiling compilation of Christmann-Franck et al. (2016)", "experiment_in_all_cases": "radiometric filter-binding kinase assay, Kinase HotSpot", "conditions_in_all_cases": "compound 0.5 µM; ATP 10 µM", "key": {"LTK (human)": {"target": "LTK (human) (UniProt P29376)"}, "FGFR3 (human)": {"target": "FGFR3 (human) (UniProt P22607)"}, "CAMKK2 (human)": {"target": "CAMKK2 (human) (UniProt Q96RR4)", "sequence (Q96RR4 whole entry, looked up)": "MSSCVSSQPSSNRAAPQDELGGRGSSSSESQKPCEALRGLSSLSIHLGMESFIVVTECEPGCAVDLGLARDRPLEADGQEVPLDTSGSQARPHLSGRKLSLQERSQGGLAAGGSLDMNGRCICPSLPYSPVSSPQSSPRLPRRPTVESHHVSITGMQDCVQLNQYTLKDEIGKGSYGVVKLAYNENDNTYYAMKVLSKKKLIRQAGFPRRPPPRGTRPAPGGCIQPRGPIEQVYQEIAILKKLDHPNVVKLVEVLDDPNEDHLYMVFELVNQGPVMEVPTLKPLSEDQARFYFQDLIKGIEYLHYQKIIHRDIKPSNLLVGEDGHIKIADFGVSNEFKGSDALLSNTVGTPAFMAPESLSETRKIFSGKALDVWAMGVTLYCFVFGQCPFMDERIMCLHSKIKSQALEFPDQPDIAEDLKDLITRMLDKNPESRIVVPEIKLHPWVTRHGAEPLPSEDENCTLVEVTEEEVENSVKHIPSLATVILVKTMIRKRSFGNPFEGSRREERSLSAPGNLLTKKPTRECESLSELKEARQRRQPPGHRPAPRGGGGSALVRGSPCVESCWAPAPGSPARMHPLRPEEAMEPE"}, "PLK2 (human)": {"target": "PLK2 (human) (UniProt Q9NYY3)"}, "CSNK2A1 (human)": {"target": "CSNK2A1 (human) (UniProt P68400)", "sequence (P68400 whole entry, looked up)": "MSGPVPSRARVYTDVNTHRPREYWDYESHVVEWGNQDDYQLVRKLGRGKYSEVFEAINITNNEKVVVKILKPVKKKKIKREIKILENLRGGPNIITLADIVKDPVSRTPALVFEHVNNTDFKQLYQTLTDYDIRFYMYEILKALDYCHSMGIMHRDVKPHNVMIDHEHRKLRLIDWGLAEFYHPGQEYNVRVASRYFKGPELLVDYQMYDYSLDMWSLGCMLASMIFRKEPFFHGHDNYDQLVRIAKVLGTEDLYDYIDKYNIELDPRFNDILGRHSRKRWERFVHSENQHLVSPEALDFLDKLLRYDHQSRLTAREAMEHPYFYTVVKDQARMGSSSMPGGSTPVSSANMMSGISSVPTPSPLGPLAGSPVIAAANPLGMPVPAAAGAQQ"}, "RPS6KA4 KD2 (human)": {"target": "RPS6KA4 KD2 (human) (UniProt O75676)"}, "BLK (human)": {"target": "BLK (human) (UniProt P51451)"}, "BRSK2 (human)": {"target": "BRSK2 (human) (UniProt Q8IWQ3)"}, "HCK (human)": {"target": "HCK (human) (UniProt P08631)"}, "CSK (human)": {"target": "CSK (human) (UniProt P41240)"}, "WNK3 (human)": {"target": "WNK3 (human) (UniProt Q9BYP7)", "sequence (Q9BYP7 whole entry, looked up)": "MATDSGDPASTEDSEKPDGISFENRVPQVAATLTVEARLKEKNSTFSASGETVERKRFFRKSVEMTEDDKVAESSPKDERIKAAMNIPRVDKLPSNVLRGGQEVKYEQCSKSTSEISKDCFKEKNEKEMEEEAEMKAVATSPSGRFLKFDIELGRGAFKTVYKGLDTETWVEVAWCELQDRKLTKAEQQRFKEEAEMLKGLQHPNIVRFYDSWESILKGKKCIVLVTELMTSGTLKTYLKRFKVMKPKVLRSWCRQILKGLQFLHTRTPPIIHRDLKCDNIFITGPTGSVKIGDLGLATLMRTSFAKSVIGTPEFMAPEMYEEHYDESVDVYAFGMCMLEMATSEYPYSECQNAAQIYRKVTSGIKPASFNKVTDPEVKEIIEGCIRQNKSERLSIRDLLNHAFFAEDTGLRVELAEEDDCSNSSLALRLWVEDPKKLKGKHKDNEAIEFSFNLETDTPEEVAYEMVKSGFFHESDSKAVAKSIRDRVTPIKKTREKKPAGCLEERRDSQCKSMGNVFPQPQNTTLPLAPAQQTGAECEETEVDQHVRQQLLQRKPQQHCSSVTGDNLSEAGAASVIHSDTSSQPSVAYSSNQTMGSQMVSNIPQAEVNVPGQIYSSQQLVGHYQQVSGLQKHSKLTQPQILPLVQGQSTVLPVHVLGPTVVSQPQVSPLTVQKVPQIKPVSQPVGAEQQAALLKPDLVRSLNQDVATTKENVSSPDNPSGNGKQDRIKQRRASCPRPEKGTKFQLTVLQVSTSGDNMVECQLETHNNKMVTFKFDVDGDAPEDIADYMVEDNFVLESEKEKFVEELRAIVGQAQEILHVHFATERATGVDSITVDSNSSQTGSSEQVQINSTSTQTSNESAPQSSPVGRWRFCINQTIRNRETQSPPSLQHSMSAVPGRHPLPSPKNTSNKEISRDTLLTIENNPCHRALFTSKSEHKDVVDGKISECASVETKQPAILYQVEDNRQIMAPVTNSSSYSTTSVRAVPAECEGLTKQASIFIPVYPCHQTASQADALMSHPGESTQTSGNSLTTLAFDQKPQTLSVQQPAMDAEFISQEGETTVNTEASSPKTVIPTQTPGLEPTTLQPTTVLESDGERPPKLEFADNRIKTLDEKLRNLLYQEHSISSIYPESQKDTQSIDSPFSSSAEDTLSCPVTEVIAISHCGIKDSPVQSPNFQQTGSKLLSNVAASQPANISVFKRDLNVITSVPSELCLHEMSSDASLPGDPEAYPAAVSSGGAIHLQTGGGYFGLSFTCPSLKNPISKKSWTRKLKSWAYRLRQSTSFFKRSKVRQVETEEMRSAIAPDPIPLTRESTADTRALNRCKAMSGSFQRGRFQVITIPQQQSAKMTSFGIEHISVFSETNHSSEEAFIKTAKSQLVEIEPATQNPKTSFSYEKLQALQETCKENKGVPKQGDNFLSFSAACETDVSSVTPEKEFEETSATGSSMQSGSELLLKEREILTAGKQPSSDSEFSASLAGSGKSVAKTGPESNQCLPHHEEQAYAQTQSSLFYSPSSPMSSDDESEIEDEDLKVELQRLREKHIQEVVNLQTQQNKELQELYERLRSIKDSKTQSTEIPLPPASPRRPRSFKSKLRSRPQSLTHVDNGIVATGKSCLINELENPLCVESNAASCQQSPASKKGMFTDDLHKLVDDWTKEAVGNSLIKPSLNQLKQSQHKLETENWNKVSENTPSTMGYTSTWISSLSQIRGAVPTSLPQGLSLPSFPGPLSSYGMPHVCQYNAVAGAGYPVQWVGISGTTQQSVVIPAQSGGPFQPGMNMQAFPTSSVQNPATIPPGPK"}, "SRPK1 (human)": {"target": "SRPK1 (human) (UniProt Q96SB4)", "sequence (Q96SB4 whole entry, looked up)": "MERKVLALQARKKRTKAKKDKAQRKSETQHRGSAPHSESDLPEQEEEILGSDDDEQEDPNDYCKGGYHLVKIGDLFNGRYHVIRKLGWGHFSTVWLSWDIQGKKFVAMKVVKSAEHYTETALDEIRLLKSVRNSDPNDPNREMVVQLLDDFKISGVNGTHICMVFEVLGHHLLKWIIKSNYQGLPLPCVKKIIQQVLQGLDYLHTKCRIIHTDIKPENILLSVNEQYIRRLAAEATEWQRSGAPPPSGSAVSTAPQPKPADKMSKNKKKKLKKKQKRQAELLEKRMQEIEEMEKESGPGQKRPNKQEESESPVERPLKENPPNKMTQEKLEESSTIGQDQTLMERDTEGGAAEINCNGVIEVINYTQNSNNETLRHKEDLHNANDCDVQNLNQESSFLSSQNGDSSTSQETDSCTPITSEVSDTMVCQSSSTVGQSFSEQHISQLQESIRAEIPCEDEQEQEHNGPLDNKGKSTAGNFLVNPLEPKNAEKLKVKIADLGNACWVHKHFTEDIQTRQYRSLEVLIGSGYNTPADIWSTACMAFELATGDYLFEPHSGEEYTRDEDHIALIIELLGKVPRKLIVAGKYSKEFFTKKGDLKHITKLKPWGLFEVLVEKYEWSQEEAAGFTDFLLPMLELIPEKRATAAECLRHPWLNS"}, "RPS6KA6 KD1 KD2 (human)": {"target": "RPS6KA6 KD1 KD2 (human) (UniProt Q9UK32)"}, "PRKACA (human)": {"target": "PRKACA (human) (UniProt P17612)"}, "STK39 (human)": {"target": "STK39 (human) (UniProt Q9UEW8)"}, "WNK2 (human)": {"target": "WNK2 (human) (UniProt Q9Y3S1)"}, "FGFR1 (human)": {"target": "FGFR1 (human) (UniProt P11362)"}, "SIK2 (human)": {"target": "SIK2 (human) (UniProt Q9H0K1)"}, "TTK (human)": {"target": "TTK (human) (UniProt P33981)"}, "DDR2 (human)": {"target": "DDR2 (human) (UniProt Q16832)"}, "JAK2 JH1 JH2 (human)": {"target": "JAK2 JH1 JH2 (human) (UniProt O60674)"}, "MAP3K7 TAB1 (human)": {"target": "MAP3K7 TAB1 (human) (UniProt O43318+Q15750)"}, "GRK6 (human)": {"target": "GRK6 (human) (UniProt P43250)"}, "MARK2 (human)": {"target": "MARK2 (human) (UniProt Q7KZI7)"}, "PRKCA (human)": {"target": "PRKCA (human) (UniProt P17252)"}, "IRAK1 (human)": {"target": "IRAK1 (human) (UniProt P51617)"}, "GSK3A (human)": {"target": "GSK3A (human) (UniProt P49840)"}, "MYLK (human)": {"target": "MYLK (human) (UniProt Q15746)"}, "EPHA3 (human)": {"target": "EPHA3 (human) (UniProt P29320)"}, "DAPK2 (human)": {"target": "DAPK2 (human) (UniProt Q9UIK4)"}, "STK16 (human)": {"target": "STK16 (human) (UniProt O75716)"}, "NEK4 (human)": {"target": "NEK4 (human) (UniProt P51957)"}, "DYRK1A (human)": {"target": "DYRK1A (human) (UniProt Q13627)"}, "PKN2 (human)": {"target": "PKN2 (human) (UniProt Q16513)", "sequence (Q16513 whole entry, looked up)": "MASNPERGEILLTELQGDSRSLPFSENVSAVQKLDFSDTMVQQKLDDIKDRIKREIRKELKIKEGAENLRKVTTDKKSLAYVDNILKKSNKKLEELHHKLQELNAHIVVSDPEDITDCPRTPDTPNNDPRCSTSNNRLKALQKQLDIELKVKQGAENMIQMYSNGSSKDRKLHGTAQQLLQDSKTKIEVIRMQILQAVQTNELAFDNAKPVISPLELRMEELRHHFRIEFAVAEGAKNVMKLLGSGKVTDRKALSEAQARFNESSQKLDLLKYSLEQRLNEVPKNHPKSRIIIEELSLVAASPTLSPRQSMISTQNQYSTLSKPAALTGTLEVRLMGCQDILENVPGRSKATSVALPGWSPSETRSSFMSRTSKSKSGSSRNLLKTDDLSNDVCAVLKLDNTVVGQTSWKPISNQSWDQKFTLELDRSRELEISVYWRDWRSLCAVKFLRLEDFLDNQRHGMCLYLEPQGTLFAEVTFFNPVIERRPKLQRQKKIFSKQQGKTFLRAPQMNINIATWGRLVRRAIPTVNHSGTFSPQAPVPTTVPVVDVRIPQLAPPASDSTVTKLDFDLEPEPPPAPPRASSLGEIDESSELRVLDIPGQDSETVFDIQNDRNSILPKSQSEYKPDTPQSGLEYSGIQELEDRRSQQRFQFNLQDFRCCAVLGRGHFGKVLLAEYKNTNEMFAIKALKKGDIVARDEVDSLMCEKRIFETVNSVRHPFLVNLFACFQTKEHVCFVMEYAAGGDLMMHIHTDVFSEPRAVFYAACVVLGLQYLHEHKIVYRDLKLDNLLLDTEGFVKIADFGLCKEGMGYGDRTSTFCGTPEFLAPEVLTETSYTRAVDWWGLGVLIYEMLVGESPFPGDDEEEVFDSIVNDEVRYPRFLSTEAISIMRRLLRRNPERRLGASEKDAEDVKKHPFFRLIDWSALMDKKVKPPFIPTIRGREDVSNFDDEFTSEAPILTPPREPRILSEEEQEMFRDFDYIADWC"}, "MLTK (human)": {"target": "MLTK (human) (UniProt Q9NYL2)"}, "ALK (human)": {"target": "ALK (human) (UniProt Q9UM73)"}, "PRKX (human)": {"target": "PRKX (human) (UniProt P51817)", "sequence (P51817 whole entry, looked up)": "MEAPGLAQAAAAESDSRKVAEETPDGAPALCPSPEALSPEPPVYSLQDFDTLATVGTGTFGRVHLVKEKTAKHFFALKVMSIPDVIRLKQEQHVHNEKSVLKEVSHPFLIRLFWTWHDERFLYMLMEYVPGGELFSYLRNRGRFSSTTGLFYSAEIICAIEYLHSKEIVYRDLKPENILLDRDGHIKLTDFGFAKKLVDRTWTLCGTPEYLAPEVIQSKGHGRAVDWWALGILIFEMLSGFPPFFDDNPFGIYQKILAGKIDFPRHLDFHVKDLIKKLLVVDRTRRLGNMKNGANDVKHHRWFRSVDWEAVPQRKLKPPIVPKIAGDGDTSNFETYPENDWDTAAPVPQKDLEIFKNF"}, "CDK6 CCND3 (human)": {"target": "CDK6 CCND3 (human) (UniProt P30281+Q00534)"}, "ZAP70 (human)": {"target": "ZAP70 (human) (UniProt P43403)"}, "FGFR2 (human)": {"target": "FGFR2 (human) (UniProt P21802)"}, "ERBB4 (human)": {"target": "ERBB4 (human) (UniProt Q15303)"}, "CLK2 (human)": {"target": "CLK2 (human) (UniProt P49760)"}}}
{"smiles": "O=C(Nc1ccc(Cl)cc1)c1ccccc1NCc1ccncc1", "values": [{"measurement": "residual activity", "setting": "LTK (human)", "value": 104, "unit": "%"}, {"measurement": "residual activity", "setting": "FGFR3 (human)", "value": 92.2, "unit": "%"}, {"measurement": "residual activity", "setting": "CAMKK2 (human)", "value": 93.9, "unit": "%"}, {"measurement": "residual activity", "setting": "PLK2 (human)", "value": 99.3, "unit": "%"}, {"measurement": "residual activity", "setting": "CSNK2A1 (human)", "value": 91.1, "unit": "%"}, {"measurement": "residual activity", "setting": "RPS6KA4 KD2 (human)", "value": 90.2, "unit": "%"}, {"measurement": "residual activity", "setting": "BLK (human)", "value": 102, "unit": "%"}, {"measurement": "residual activity", "setting": "BRSK2 (human)", "value": 102, "unit": "%"}, {"measurement": "residual activity", "setting": "HCK (human)", "value": 101, "unit": "%"}, {"measurement": "residual activity", "setting": "CSK (human)", "value": 101, "unit": "%"}, {"measurement": "residual activity", "setting": "WNK3 (human)", "value": 92.9, "unit": "%"}, {"measurement": "residual activity", "setting": "SRPK1 (human)", "value": 109, "unit": "%"}, {"measurement": "residual activity", "setting": "RPS6KA6 KD1 KD2 (human)", "value": 104, "unit": "%"}, {"measurement": "residual activity", "setting": "PRKACA (human)", "value": 97.1, "unit": "%"}, {"measurement": "residual activity", "setting": "STK39 (human)", "value": 94.7, "unit": "%"}, {"measurement": "residual activity", "setting": "WNK2 (human)", "value": 101, "unit": "%"}, {"measurement": "residual activity", "setting": "FGFR1 (human)", "value": 83.7, "unit": "%"}, {"measurement": "residual activity", "setting": "SIK2 (human)", "value": 94.8, "unit": "%"}, {"measurement": "residual activity", "setting": "TTK (human)", "value": 102, "unit": "%"}, {"measurement": "residual activity", "setting": "DDR2 (human)", "value": 88.9, "unit": "%"}, {"measurement": "residual activity", "setting": "JAK2 JH1 JH2 (human)", "value": 96.5, "unit": "%"}, {"measurement": "residual activity", "setting": "MAP3K7 TAB1 (human)", "value": 98.1, "unit": "%"}, {"measurement": "residual activity", "setting": "GRK6 (human)", "value": 101, "unit": "%"}, {"measurement": "residual activity", "setting": "MARK2 (human)", "value": 92.7, "unit": "%"}, {"measurement": "residual activity", "setting": "PRKCA (human)", "value": 96.7, "unit": "%"}, {"measurement": "residual activity", "setting": "IRAK1 (human)", "value": 117, "unit": "%"}, {"measurement": "residual activity", "setting": "GSK3A (human)", "value": 80.1, "unit": "%"}, {"measurement": "residual activity", "setting": "MYLK (human)", "value": 105, "unit": "%"}, {"measurement": "residual activity", "setting": "EPHA3 (human)", "value": 92.1, "unit": "%"}, {"measurement": "residual activity", "setting": "DAPK2 (human)", "value": 98.4, "unit": "%"}, {"measurement": "residual activity", "setting": "STK16 (human)", "value": 94.1, "unit": "%"}, {"measurement": "residual activity", "setting": "NEK4 (human)", "value": 85.8, "unit": "%"}, {"measurement": "residual activity", "setting": "DYRK1A (human)", "value": 97.1, "unit": "%"}, {"measurement": "residual activity", "setting": "PKN2 (human)", "value": 93.2, "unit": "%"}, {"measurement": "residual activity", "setting": "MLTK (human)", "value": 86, "unit": "%"}, {"measurement": "residual activity", "setting": "ALK (human)", "value": 103, "unit": "%"}, {"measurement": "residual activity", "setting": "PRKX (human)", "value": 90.5, "unit": "%"}, {"measurement": "residual activity", "setting": "CDK6 CCND3 (human)", "value": 86.5, "unit": "%"}, {"measurement": "residual activity", "setting": "ZAP70 (human)", "value": 103, "unit": "%"}, {"measurement": "residual activity", "setting": "FGFR2 (human)", "value": 95.7, "unit": "%"}, {"measurement": "residual activity", "setting": "ERBB4 (human)", "value": 71.3, "unit": "%"}, {"measurement": "residual activity", "setting": "CLK2 (human)", "value": 91.8, "unit": "%"}]}
{"smiles": "Clc1ccc(Nc2nnc(Cc3ccncc3)c3ccccc23)cc1", "values": [{"measurement": "residual activity", "setting": "LTK (human)", "value": 105, "unit": "%"}, {"measurement": "residual activity", "setting": "FGFR3 (human)", "value": 91.5, "unit": "%"}, {"measurement": "residual activity", "setting": "CAMKK2 (human)", "value": 100, "unit": "%"}, {"measurement": "residual activity", "setting": "PLK2 (human)", "value": 101, "unit": "%"}, {"measurement": "residual activity", "setting": "CSNK2A1 (human)", "value": 114, "unit": "%"}, {"measurement": "residual activity", "setting": "RPS6KA4 KD2 (human)", "value": 98, "unit": "%"}, {"measurement": "residual activity", "setting": "BLK (human)", "value": 105, "unit": "%"}, {"measurement": "residual activity", "setting": "BRSK2 (human)", "value": 97.1, "unit": "%"}, {"measurement": "residual activity", "setting": "HCK (human)", "value": 89.5, "unit": "%"}, {"measurement": "residual activity", "setting": "CSK (human)", "value": 87.6, "unit": "%"}, {"measurement": "residual activity", "setting": "WNK3 (human)", "value": 99.1, "unit": "%"}, {"measurement": "residual activity", "setting": "SRPK1 (human)", "value": 98.5, "unit": "%"}, {"measurement": "residual activity", "setting": "RPS6KA6 KD1 KD2 (human)", "value": 99.7, "unit": "%"}, {"measurement": "residual activity", "setting": "PRKACA (human)", "value": 98.1, "unit": "%"}, {"measurement": "residual activity", "setting": "STK39 (human)", "value": 92.6, "unit": "%"}, {"measurement": "residual activity", "setting": "WNK2 (human)", "value": 96.3, "unit": "%"}, {"measurement": "residual activity", "setting": "FGFR1 (human)", "value": 97.2, "unit": "%"}, {"measurement": "residual activity", "setting": "SIK2 (human)", "value": 97.9, "unit": "%"}, {"measurement": "residual activity", "setting": "TTK (human)", "value": 108, "unit": "%"}, {"measurement": "residual activity", "setting": "DDR2 (human)", "value": 97.1, "unit": "%"}, {"measurement": "residual activity", "setting": "JAK2 JH1 JH2 (human)", "value": 106, "unit": "%"}, {"measurement": "residual activity", "setting": "MAP3K7 TAB1 (human)", "value": 99.6, "unit": "%"}, {"measurement": "residual activity", "setting": "GRK6 (human)", "value": 99.9, "unit": "%"}, {"measurement": "residual activity", "setting": "MARK2 (human)", "value": 133, "unit": "%"}, {"measurement": "residual activity", "setting": "PRKCA (human)", "value": 75.8, "unit": "%"}, {"measurement": "residual activity", "setting": "IRAK1 (human)", "value": 94.1, "unit": "%"}, {"measurement": "residual activity", "setting": "GSK3A (human)", "value": 103, "unit": "%"}, {"measurement": "residual activity", "setting": "MYLK (human)", "value": 97.5, "unit": "%"}, {"measurement": "residual activity", "setting": "EPHA3 (human)", "value": 98.8, "unit": "%"}, {"measurement": "residual activity", "setting": "DAPK2 (human)", "value": 91.7, "unit": "%"}, {"measurement": "residual activity", "setting": "STK16 (human)", "value": 93.5, "unit": "%"}, {"measurement": "residual activity", "setting": "NEK4 (human)", "value": 97.7, "unit": "%"}, {"measurement": "residual activity", "setting": "DYRK1A (human)", "value": 102, "unit": "%"}, {"measurement": "residual activity", "setting": "PKN2 (human)", "value": 99.9, "unit": "%"}, {"measurement": "residual activity", "setting": "MLTK (human)", "value": 90.3, "unit": "%"}, {"measurement": "residual activity", "setting": "ALK (human)", "value": 102, "unit": "%"}, {"measurement": "residual activity", "setting": "PRKX (human)", "value": 152, "unit": "%"}, {"measurement": "residual activity", "setting": "CDK6 CCND3 (human)", "value": 125, "unit": "%"}, {"measurement": "residual activity", "setting": "ZAP70 (human)", "value": 96.6, "unit": "%"}, {"measurement": "residual activity", "setting": "FGFR2 (human)", "value": 96, "unit": "%"}, {"measurement": "residual activity", "setting": "ERBB4 (human)", "value": 104, "unit": "%"}, {"measurement": "residual activity", "setting": "CLK2 (human)", "value": 87.6, "unit": "%"}]}
